From patent US20240277698A1, “METHODS OF USING ALDOSTERONE SYNTHASE INHIBITORS” (CINCOR PHARMA, INC., priority 2021, published 2024)
Like-named read-outs stand apart in the source and are kept apart here.

Key:
CYP11B1 = biological target: T1, CYP11B1 (Homo sapiens, UniProt P15538); assay: SAD study: plasma cortisol, 11-deoxycortisol and 11-DOC after Cortrosyn challenge; format: in vivo
T1 construct: endogenous in cells; host or cells: adrenal cortex of healthy human subjects (in vivo, oral dosing)
T1 sequence (P15538 25-503): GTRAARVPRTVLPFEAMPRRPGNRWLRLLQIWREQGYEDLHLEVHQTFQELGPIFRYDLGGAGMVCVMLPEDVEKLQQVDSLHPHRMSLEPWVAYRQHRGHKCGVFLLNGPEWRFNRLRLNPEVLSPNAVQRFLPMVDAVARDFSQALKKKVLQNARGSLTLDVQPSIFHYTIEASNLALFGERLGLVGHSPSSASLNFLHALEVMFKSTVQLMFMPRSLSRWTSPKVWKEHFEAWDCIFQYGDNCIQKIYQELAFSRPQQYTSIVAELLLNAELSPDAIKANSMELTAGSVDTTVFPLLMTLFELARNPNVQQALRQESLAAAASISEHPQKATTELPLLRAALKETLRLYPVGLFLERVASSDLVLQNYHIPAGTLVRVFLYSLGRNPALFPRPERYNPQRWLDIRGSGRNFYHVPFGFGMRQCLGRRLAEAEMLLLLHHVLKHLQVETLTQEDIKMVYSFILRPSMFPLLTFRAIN
Method: (§1) Single doses of (R)-compound 1 reduced plasma and urine aldosterone levels by approximately 85% to 90% in a dose-dependent manner, consistently reaching a maximum effect at a dose of 10 mg (R)-compound 1 under the different conditions tested (Cortrosyn® challenge, standing, normal salt diet, and low salt diet conditions). No change in plasma cortisol levels was apparent across the full dose range tested (0 to 360 mg (R)-compound 1).
(§2) A maximum effect on aldosterone reduction was consistently achieved at a dose of 10 mg under the different conditions tested in healthy subjects (Cortrosyn® challenge, standing, normal salt diet, and low salt diet conditions). No change in plasma cortisol levels after the Cortrosyn challenge was apparent across the full dose range tested (0 to 360 mg of (R)-compound 1).

aldosterone synthase = biological target: T2, aldosterone synthase (Homo sapiens, UniProt P19099); assay: SAD study: plasma and urine aldosterone and precursors (Cortrosyn challenge, standing, normal and low salt diet); format: in vivo; settings: normal salt diet, low salt diet conditions
T2 construct: synthesized in the adrenal cortex by aldosterone synthase; endogenous in cells; host or cells: adrenal cortex of healthy human subjects (in vivo, oral dosing)
T2 sequence (P19099 25-503): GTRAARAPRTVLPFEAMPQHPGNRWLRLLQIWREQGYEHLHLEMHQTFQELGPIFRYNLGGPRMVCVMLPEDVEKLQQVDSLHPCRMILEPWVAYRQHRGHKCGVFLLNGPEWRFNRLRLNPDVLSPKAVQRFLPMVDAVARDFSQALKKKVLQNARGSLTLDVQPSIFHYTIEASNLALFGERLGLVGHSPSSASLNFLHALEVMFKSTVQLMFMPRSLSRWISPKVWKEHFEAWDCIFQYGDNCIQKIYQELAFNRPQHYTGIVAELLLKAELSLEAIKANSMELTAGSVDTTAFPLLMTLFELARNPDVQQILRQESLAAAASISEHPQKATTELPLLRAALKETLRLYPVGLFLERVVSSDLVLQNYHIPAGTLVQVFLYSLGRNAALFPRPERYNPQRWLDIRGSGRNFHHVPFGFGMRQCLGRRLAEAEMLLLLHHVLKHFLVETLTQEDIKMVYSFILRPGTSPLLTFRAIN
Method: as §1, §2
(R)-compound 1 induced a dose-dependent blunting of plasma aldosterone levels as compared to Day −1 baseline and as compared to placebo, with a maximum effect achieved at the 10 mg dose level (approximate 85% to 90% decrease as compared to Day −1). This effect was observed both on the post-Cortrosyn challenge readout (time interval 0 to 4 hours), and on the standing aldosterone peak (time interval 4 to 12 hours) (See FIG. 10).
Notes: Plasma aldosterone levels that were Below limit of quantification were set to the lower limit of quantitation value (5 pg/mL) to allow further calculation. […]

[1] = MAD study: urine pharmacokinetics; format: in vivo, human; parameters: CL renal: unit not given here; settings: for Ae, D 1 (amount excreted in urine, Day 1) / Ae, D 10 (amount excreted in urine, Day 10) / Fe, D 1 (fraction of dose excreted renally, Day 1) / Fe, D 10 (fraction of dose excreted renally, Day 10) / CL renal: mean; for CL renal: human, urine, oral
Text: For each subject, the study consisted of: • A screening period of up to 28 days; • A 5-day inpatient run-in period during which subjects adhered to a controlled, standardized diet and underwent baseline PD assessments; • A 15-day inpatient treatment period, during which subjects received (R)-compound 1 or placebo once daily for 10 days while adhering to a controlled, standardized diet, followed by PK and PD sampling over an additional 5 days; and • A follow-up visit 3 days (1 day) after discharge from the clinical unit. • A cortisol stimulation test (Cohorts 1 and 2 only) and standing aldosterone assessment (all cohorts) were performed on Days 1 and 10. Serial blood samples for PK and PD were obtained prior to and at specified time points over 24 hours after dosing on Day 1 as well as prior to and at specified time points over 120 hours after dosing on Day 10. In addition, blood samples for PK were collected prior to dosing on Days 8 and 9. Urine for PK and PD measurements was collected over 24 hours starting just prior to dosing on Day 1 as well as over 120 hours starting just prior to dosing on Day 10.

[2] = Absolute bioavailability, 3 mg IV versus 3 mg oral; format: in vivo; settings: human, plasma

## CCC(=O)N[C@@H]1CCCc2c(-c3ccc4c(c3)CCC(=O)N4C)cncc21 [(R)-Compound 1, (R)—N-(4-(1-methyl-2-oxo-1,2,3,4-tetrahydroquinolin-6-yl)-5,6,7,8-tetrahydroisoquinolin-8-yl)propionamide]
CYP11B1; full dose range tested (0 to 360 mg), Cortrosyn challenge
  plasma cortisol levels: No change
CYP11B1; single doses
  doses at which 11-DOC increased: ≥ 90 mg
CYP11B1; single doses up to 360 mg
  11-deoxycortisol: increases in 11-deoxycortisol (at doses of 180 mg and 360 mg)
Aldosterone synthase
  dose at which maximum effect on aldosterone reduction reached: 10 mg
[1]; 0.5 mg QD, normal salt diet
  Ae, D 1 (amount excreted in urine, Day 1): 39952.889 ng
  Ae, D 10 (amount excreted in urine, Day 10): 168181.917 ng
  Fe, D 1 (fraction of dose excreted renally, Day 1): 7.991%
  Fe, D 10 (fraction of dose excreted renally, Day 10): 33.636%
[1]; 1.5 mg QD, normal salt diet
  Ae, D 1 (amount excreted in urine, Day 1): 115762.122 ng
  Ae, D 10 (amount excreted in urine, Day 10): 459968.526 ng
  Fe, D 1 (fraction of dose excreted renally, Day 1): 7.717%
  Fe, D 10 (fraction of dose excreted renally, Day 10): 30.665%
[1]; 2.5 mg QD, low salt diet
  Ae, D 1 (amount excreted in urine, Day 1): 1687233.672 ng
  Ae, D 10 (amount excreted in urine, Day 10): 766791.190 ng
  Fe, D 1 (fraction of dose excreted renally, Day 1): 6.749%
  Fe, D 10 (fraction of dose excreted renally, Day 10): 30.672%
[1]; 2.5 mg QD, normal salt diet
  Ae, D 1 (amount excreted in urine, Day 1): 270541.533 ng
  Ae, D 10 (amount excreted in urine, Day 10): 826482.355 ng
  Fe, D 1 (fraction of dose excreted renally, Day 1): 10.822%
  Fe, D 10 (fraction of dose excreted renally, Day 10): 33.059%
[1]; 5.0 mg QD, low salt diet
  Ae, D 1 (amount excreted in urine, Day 1): 317339.306 ng
  Ae, D 10 (amount excreted in urine, Day 10): 1677304.469 ng
  Fe, D 1 (fraction of dose excreted renally, Day 1): 6.347%
  Fe, D 10 (fraction of dose excreted renally, Day 10): 33.546%
[1]; MAD study
  dose recovered unchanged in the urine, average: approximately 7%
[1]; 0.5 mg, 0.5 mg QD, normal salt diet, read-out: CLR, D 1 (renal clearance, Day 1) (converted)
  CL renal: 0.00888
[1]; 0.5 mg, 0.5 mg QD, normal salt diet, read-out: CLR, D 10 (renal clearance, Day 10) (converted)
  CL renal: 0.00822
[1]; 1.5 mg, 1.5 mg QD, normal salt diet, read-out: CLR, D 1 (renal clearance, Day 1) (converted)
  CL renal: 0.00958
[1]; 1.5 mg, 1.5 mg QD, normal salt diet, read-out: CLR, D 10 (renal clearance, Day 10) (converted)
  CL renal: 0.00733
[1]; 2.5 mg, 2.5 mg QD, low salt diet, read-out: CLR, D 1 (renal clearance, Day 1) (converted)
  CL renal: 0.00797
[1]; 2.5 mg, 2.5 mg QD, low salt diet, read-out: CLR, D 10 (renal clearance, Day 10) (converted)
  CL renal: 0.0085
[1]; 2.5 mg, 2.5 mg QD, normal salt diet, read-out: CLR, D 1 (renal clearance, Day 1) (converted)
  CL renal: 0.0136
[1]; 2.5 mg, 2.5 mg QD, normal salt diet, read-out: CLR, D 10 (renal clearance, Day 10) (converted)
  CL renal: 0.0111
[1]; 5 mg, 5.0 mg QD, low salt diet, read-out: CLR, D 1 (renal clearance, Day 1) (converted)
  CL renal: 0.00815
[1]; 5 mg, 5.0 mg QD, low salt diet, read-out: CLR, D 10 (renal clearance, Day 10) (converted)
  CL renal: 0.00822
[2]
  bioavailability: 97.9%
